Values joined by “and” are separate entries in the source; they are usually repeats but may differ in a detail not shown here. Equal entries are not always repeated.
Tests used:
MCF-7 cells = experiment: Cellular 59Fe uptake from 59Fe2-transferrin; type: cell-based, human; settings: 25 μM, 3 h/37°C, MCF-7, 0.75 μM 59Fe2-Tf
Description: Human transferrin (Sigma) was labeled with ^56Fe or ^59Fe (PerkinElmer, Massachusetts, USA) to produce ^56Fe2-transferrin or ^59Fe2-transferrin (^59Fe2-Tf), respectively, with a final specific activity of 500 pCi/pmol Fe, as previously described. Unbound ^59Fe was removed by exhaustive vacuum dialysis against a large excess of 0.15 M NaCl buffered to pH 7.4 with 1.4% NaHCO3 by standard methods.
The ability of the chelators to prevent cellular ^59Fe uptake from ^59Fe2-transferrin was examined using standard techniques. In brief, confluent MCF-7 cells in 6-well plates were incubated with 0.75 μM ^59Fe2-Tf for 3 h/37°C in the presence of Bp4eT or its metabolites (25 μM). The cells were then washed four times with ice-cold PBS and the level of internalized ^59Fe was determined by incubating the cell monolayer for 30 min/4°C with the general protease, Pronase (1 mg/mL; Sigma-Aldrich). The cells were then removed from the monolayer with a plastic spatula on ice and centrifuged for 1 min/12,000 x g/4°C. The supernatant represents membrane-bound, Pronase-sensitive ^59Fe that was released by the protease, while the Pronase-insensitive fraction represents internalized ^59Fe. The amount of internalized ^59Fe was expressed as a percentage of ^59Fe internalized by control (untreated) cells.

[1] = set-up: method as in PMID 24254882; settings: E and Z isomers, after Bp4eT; cited from earlier work
[2] = test system: labile iron pool of MCF-7 cells; experiment: Calcein-AM assay, access to the labile iron pool; type: cell-based, human; settings: 10 μM, MCF-7, mean of 6 experiments
Protocol: These experiments were performed according to Glickstein et al. with slight modifications. The MCF-7 cells were seeded in 96-well plates (10,000 cells/well) and allowed to adhere for 24 h/37°C. Cells were loaded with iron using the cellular iron donor, ferric ammonium citrate (530 μg/mL), 24 h prior to the experiment, and then washed. To prevent potential interference, especially with regard to various trace elements, the medium was replaced with ADS buffer (prepared using Millipore water supplemented with 116 mM NaCl, 5.3 mM KCl, 1 mM CaCl2, 1.2 mM MgSO4, 1.13 mM NaH2PO4, 5 mM D-glucose, and 20 mM HEPES, pH 7.4). Cells were then loaded with 2 μM of the cell-permeable calcein green acetoxymethyl ester (calcein-AM; Molecular Probes, Oregon, USA) for 30 min/37°C and washed. Cellular esterases cleave the acetoxymethyl groups to form the cell membrane-impermeable compound, calcein green. The fluorescence of calcein green is quenched upon binding iron. The intracellular fluorescence (λex = 488 nm; λem = 530 nm) of calcein green was then followed as a function of time (10 min after the addition of 10 μM Bp4eT or its metabolites) at 37°C using the Tecan Infinite 200M plate reader. The iron chelation efficacy of the metabolites in cells was expressed as a percentage of the efficacy of the parent chelator, Bp4eT (100%).

[3] = test system: 3T3 mouse embryo fibroblasts; experiment: MTT cytotoxicity assay, 3T3 cells; type: cell-based; settings: Mus musculus, Fibroblast, 72 h, 3T3, 72 h; read-out: IC50
Protocol: (§1) For cytotoxicity experiments, cancer cells were seeded at a density of 5,000 (MCF-7), 10,000 (HL-60) or 2,000 cells/well (HCT116 and A549) in 96-well plates (TPP) for 24 h/37°C prior to the addition of examined agents. The non-cancerous cells, 3T3 and H9c2 cells, were cultured for 24 h/37°C in 96-well plates at a density of 10,000 cells/well, the medium was then changed to serum- and pyruvate-free DMEM (Sigma-Aldrich) and incubated with the cells for another 24 h/37°C. The cytotoxic effects of Bp4eT and its metabolites were studied at different concentrations after a 72 h/37°C incubation. In order to aid the dissolution of the lipophilic ligands, 0.1% dimethyl sulfoxide (v/v) (DMSO; Sigma-Aldrich) was present in the culture medium of all groups. At this concentration, DMSO had no effect on cellular proliferation or viability.
(§2) The viability of cells were determined using an MTT assay (Sigma-Aldrich) according to previously established methods. The optical density of soluble MTT was measured at λ = 570 nm, subtracting the λ = 690 nm background using a Tecan Infinite 200M plate reader (Tecan Group, Männedorf, Switzerland). The viability or proliferation of experimental groups was expressed as a percentage of the untreated controls (100%).
(§3) SigmaStat for Windows 3.5 (Systat Software, San Jose, CA, USA) statistical software package was utilized to analyze results. The data are expressed as the mean ± SD of a given number of experiments. Statistical significance was determined using a one-way ANOVA with a Bonferroni post-hoc test or Student’s t-test. The results were considered to be statistically significant when p < 0.05. The IC50 values were calculated using CalcuSyn 2.0 software (Biosoft, Cambridge, UK). Cell cycle analysis was evaluated using MultiCycle AV Software (Phoenix Flow Systems, San Diego, CA, USA).

H9c2 cardiomyoblasts = experiment: MTT cytotoxicity assay, H9c2 cells; type: cell-based, rat; settings: H9c2, 72 h/37°C, MTT; mean ± SD, n ≥ 4; read-out: IC50
Protocol: as §1, §2, §3

[4] = test system: cancer cells (HL-60, MCF-7, HCT116, A549) and non-cancerous cells (H9c2, 3T3); experiment: MTT cytotoxicity assay, summary over the cell line panel; type: cell-based; settings: HL-60, MCF-7, HCT116, A549; 72 h; read-out: IC50, range over cancer cells
Protocol: as §1, §2, §3

[5] = Ascorbate oxidation assay (redox activity of iron complexes); type: biochemical; settings: for %Fe 30min: ascorbate oxidation as % of the Fe control (Fe 100%): IBE 0.1, 30 min;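 for %Fe 30min (ascorbate oxidation, Fe 100%), průměr: IBE 3 means excess free chelator over iron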;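 for %Fe 30min (ascorbate oxidation, Fe 100%): IBE 3 means excess free chelator over iron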;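 for %Fe 30min: ascorbate oxidation as % of the Fe control (Fe 100%): IBE 0.1 means iron-binding equivalents with iron in excess over chelator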;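 for Change of absorbance, odečet 0 (time 0 subtracted), čas 10, průměr: IBE 3 means excess free chelator over 10 µM FeCl3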;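 for Change of absorbance, odečet 0 (time 0 subtracted), čas 10: IBE 3 means excess free chelator over 10 µM FeCl3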
Protocol: The ascorbate oxidation assay was used to assess the redox activity of the iron complexes of the chelators using an established protocol. In brief, 100 μM ascorbic acid was prepared immediately prior to the experiment and incubated either alone or in the presence of 10 μM FeCl3 in a 50-fold molar excess (500 μM) of citrate and the chelators. Chelators were assayed at iron-binding equivalents (IBE) of 0.1 (excess of iron), 1 (fully coordinated iron—chelator complexes) and 3 (excess of free chelator). […] The decrease of absorbance between the two time points was calculated and expressed as a percentage of control without the chelator.

cancer cells = test system: cancer cells; set-up: method as in PMID 17602603, PMID 23074173, PMID 2758414, PMID 20036563; settings: cited from earlier work
[6] = sheet IBE 1, time 10, replicates
[7] = sheet IBE 1, time 20, replicates
[8] = sheet IBE 1, time 30, replicates

CCNC(=O)NN=C(c1ccccc1)c1ccccn1 [Bp4eS, 2-benzoylpyridine 4-ethylsemicarbazone]
Internalized 59Fe uptake, % of the control (MCF-7 cells): comparable to the untreated control | Concentration in plasma [1]: < 20 nM | Chelation efficacy: fluorescence of free calcein at t = 600 s as percentage of Bp4eT [2]: ≤ 1.0% | IC50 [3]: > 1000 µM | IC50 (H9c2 cardiomyoblasts): 343 µM | IC50 [4]: 46 to 536 µM

CC(=O)N(O)CCCCCNC(=O)CCC(=O)N(O)CCCCCNC(=O)CCC(=O)N(O)CCCCCN [DFO, deferoxamine, reference compound]
%Fe 30min: ascorbate oxidation as % of the Fe control (Fe 100%) ([5]; mean (průměr)): 95.6% | %Fe 30min: ascorbate oxidation as % of the Fe control (Fe 100%) ([5]; single wells): 92.32% and 94.84% and 89.62% and 108.6% and 104.8% and 93.48% | Change of absorbance after subtraction of time 0 (odečet 0) ([5]; IBE 0.1, time 10, mean (průměr)): -0.0289 | Change of absorbance after subtraction of time 0 (odečet 0) ([5]; IBE 0.1, time 20, mean (průměr)): -0.06128 | Change of absorbance after subtraction of time 0 (odečet 0) ([5]; IBE 0.1, time 30, mean (průměr)): -0.09056 | Absorbance (ascorbate, λ = 265 nm) ([5]; IBE 0.1, čas 0 (time 0), mean (průměr)): 0.8374 | Absorbance (ascorbate, λ = 265 nm) ([5]; IBE 0.1, čas 0 (time 0), single wells): 0.8482 and 0.8386 and 0.8297 and 0.8393 and 0.8347 and 0.8423 | Absorbance (ascorbate, λ = 265 nm) ([5]; IBE 0.1, čas 10 (time 10), mean (průměr)): 0.8085 | Absorbance (ascorbate, λ = 265 nm) ([5]; IBE 0.1, čas 10 (time 10), single wells): 0.8014 and 0.8085 and 0.8061 and 0.8115 and 0.8174 and 0.8155 | Absorbance (ascorbate, λ = 265 nm) ([5]; IBE 0.1, čas 20 (time 20), mean (průměr)): 0.7761 | Absorbance (ascorbate, λ = 265 nm) ([5]; IBE 0.1, čas 20 (time 20), single wells): 0.7691 and 0.7765 and 0.7756 and 0.7789 and 0.7837 and 0.7797 | Absorbance (ascorbate, λ = 265 nm) ([5]; IBE 0.1, čas 30 (time 30), mean (průměr)): 0.7468 | Absorbance (ascorbate, λ = 265 nm) ([5]; IBE 0.1, čas 30 (time 30), single wells): 0.7397 and 0.7469 and 0.7473 and 0.7447 and 0.754 and 0.7546 | Ascorbate oxidation, % of the control ([5]; IBE 1): significant (p < 0.001) decrease | Ascorbate oxidation, % of the control ([5]; IBE 3): significant (p < 0.001) decrease | %Fe 30min (ascorbate oxidation, Fe = 100%), průměr (mean) ([5]; sheet IBE 1, 30min, Fe 100%, mean): 34.33% | %Fe 30min (ascorbate oxidation, Fe = 100%), single replicates ([5]; sheet IBE 1, 30min, Fe 100%, replicates): 31.7% and 34.66% and 23.38% and 46.3% and 44.12% and 39.04% | raw reading at čas 0 (time 0), průměr (mean) ([5]; sheet IBE 1, time 0, mean of 9 readings): 0.8386 | raw reading at čas 0 (time 0), single replicates ([5]; sheet IBE 1, time 0, replicates of 2014-03-24 (two runs) and 2014-03-25): 0.8558 and 0.8596 and 0.828 and 0.8361 and 0.827 and 0.8501 | odečet 0 (reading minus time 0 reading) at čas 10, průměr (mean) ([5]; sheet IBE 1, time 10, mean): -0.01 | raw reading at čas 10 (time 10), průměr (mean) ([5]; sheet IBE 1, time 10, mean of 9 readings): 0.8286 | odečet 0 (reading minus time 0 reading) at čas 10, single replicates [5, 6]: -0.00635 and -0.01167 and -0.00323 and -0.01849 and -0.01895 and -0.01001 | raw reading at čas 10 (time 10), single replicates [5, 6]: 0.8216 and 0.8244 and 0.8238 and 0.8316 and 0.8369 and 0.8496 | odečet 0 (reading minus time 0 reading) at čas 20, průměr (mean) ([5]; sheet IBE 1, time 20, mean): -0.0179 | raw reading at čas 20 (time 20), průměr (mean) ([5]; sheet IBE 1, time 20, mean of 9 readings): 0.8207 | odečet 0 (reading minus time 0 reading) at čas 20, single replicates [5, 7]: -0.01539 and -0.01649 and -0.00893 and -0.03069 and -0.02809 and -0.02068 | raw reading at čas 20 (time 20), single replicates [5, 7]: 0.8126 and 0.8196 and 0.8181 and 0.8194 and 0.8278 and 0.8389 | odečet 0 (reading minus time 0 reading) at čas 30, průměr (mean) ([5]; sheet IBE 1, time 30, mean): -0.0308 | raw reading at čas 30 (time 30), průměr (mean) ([5]; sheet IBE 1, time 30, mean of 9 readings): 0.8078 | odečet 0 (reading minus time 0 reading) at čas 30, single replicates [5, 8]: -0.02739 and -0.02994 and -0.0202 and -0.04369 and -0.04163 and -0.03684 | raw reading at čas 30 (time 30), single replicates [5, 8]: 0.8006 and 0.8061 and 0.8068 and 0.8064 and 0.8142 and 0.8227 | %Fe 30min (ascorbate oxidation, Fe 100%), průměr ([5]; sheet IBE 3, 30min, Fe alone = 100%, mean (průměr) of the 9 replicates): 14.03% | %Fe 30min (ascorbate oxidation, Fe 100%) ([5]; sheet IBE 3, 30min, Fe alone = 100%, single replicates): 16.83% and 16.2% and 10.25% and 18.5% and 12.77% and 8.453% | Change of absorbance, odečet 0 (time 0 subtracted), čas 10, průměr ([5]; sheet IBE 3, time 10 minus time 0, mean (průměr)): -0.00229 | Change of absorbance, odečet 0 (time 0 subtracted), čas 10 ([5]; sheet IBE 3, time 10 minus time 0, single replicates): -0.00147 and -0.00159 and -0.00408 and -0.00649 and -0.00197 and 0.00214 | Change of absorbance, odečet 0 (time 0 subtracted), čas 20, průměr ([5]; sheet IBE 3, time 20 minus time 0, mean (průměr)): -0.00588 | Change of absorbance, odečet 0 (time 0 subtracted), čas 20 ([5]; sheet IBE 3, time 20 minus time 0, single replicates): -0.00984 and -0.00475 and -0.00555 and -0.0054 and -0.00607 and -0.00117 | Change of absorbance, odečet 0 (time 0 subtracted), čas 30, průměr ([5]; sheet IBE 3, time 30 minus time 0, mean (průměr)): -0.01297 | Change of absorbance, odečet 0 (time 0 subtracted), čas 30 ([5]; sheet IBE 3, time 30 minus time 0, single replicates): -0.01562 and -0.01504 and -0.00952 and -0.01694 and -0.01169 and -0.00774 | IC50 values against cancer cells (cancer cells): μM range

O=C(O)c1ccc(-n2nc(-c3ccccc3O)nc2-c2ccccc2O)cc1 [deferasirox]
IC50 values against cancer cells (cancer cells): μM range

Source: paper PMC4604124, “In Vitro Characterization of the Pharmacological Properties of the Anti-Cancer Chelator, Bp4eT, and Its Phase I Metabolites” (PLoS ONE, 2015)
